For 1 substance, MIC results are on record in publication PMC5345905 (Journal of the American Chemical Society, 2017).

The MIC is the lowest concentration found to suppress growth.

For the assay, the system named is Bacillus subtilis 168. Kind of assay: minimal inhibitory concentration. It is filed as cell-based. The note with it: purified unique compounds, quantitative MIC.

With thiocillin [WT], the MIC worked out at 0.5 µg/mL.
